Literature values, collected in patent US20100204159A1, “ORGANIC COMPOUNDS AND THEIR USES” (priority 2006, published 2010).

Test system: HCV
Settings: ribavirin alone; Davis, Gastroenterology 118:S104-S114, 2000

NC(=O)c1ncn([C@@H]2O[C@H](CO)[C@@H](O)[C@H]2O)n1 [Ribavirin, 1-β-D-ribofuranosyl-1-1,2,4-triazole-3-caroxamide]
effect on serum levels of HCV-RNA: does not lower serum levels of HCV-RNA
patients in whom serum amino transferase levels are reduced to normal: 40 % of patients
